# Assay results reported in ChEMBL document CHEMBL3769368, “Semi-synthesis and anti-tumor evaluation of novel 25-hydroxyprotopanaxadiol derivatives as apoptosis inducing agents” (Medchemcomm, 2015).
# Experiments:
# [1] = Antiproliferative activity against human alpha-2 cells after 48 hrs by MTT assay; assay type: functional, cell-based
# [2] = Antiproliferative activity against human PC3 cells after 48 hrs by MTT assay; assay type: functional, cell-based; conditions: PC-3, 48 h
# [3] = Antiproliferative activity against human BGC823 cells after 48 hrs by MTT assay; assay type: functional, cell-based; conditions: BGC-823, 48 h
# [4] = Antiproliferative activity against human DU145 cells after 48 hrs by MTT assay; assay type: functional, cell-based; conditions: DU-145, 48 h
# [5] = Cytotoxicity against human IOSE-144 cells after 48 hrs by MTT assay; assay type: cell-based; conditions: IOSE-144, 48 h
# [6] = test system: MDA-MB-231; experiment: Antiproliferative activity against human MDA-MB-231 cells after 48 hrs by MTT assay; assay type: functional, cell-based; conditions: MDA-MB-231, 48 h
Structure (SMILES),IC50 [1] [µM],IC50 [2] [µM],IC50 [3] [µM],IC50 [4] [µM],IC50 [5] [µM],IC50 [6] [µM]
CC(C)(O)CCC[C@@](C)(O)[C@H]1CC[C@]2(C)[C@@H]1[C@H](O)C[C@@H]1[C@@]3(C)CC[C@H](OC(=O)[C@H](Cc4cnc[nH]4)NC(=O)OC(C)(C)C)C(C)(C)[C@@H]3CC[C@]12C,20,28,27,21,> 100,17
CC(C)(O)CCC[C@@](C)(O)[C@H]1CC[C@]2(C)[C@@H]1[C@H](OC(=O)[C@H](CCC(=O)OCc1ccccc1)NC(=O)OC(C)(C)C)C[C@@H]1[C@@]3(C)CC[C@H](OC(=O)[C@H](CCC(=O)OCc4ccccc4)NC(=O)OC(C)(C)C)C(C)(C)[C@@H]3CC[C@]12C,61,> 100,> 100,> 100,> 100,89
CC(C)(O)CCC[C@@](C)(O)[C@H]1CC[C@]2(C)[C@@H]1[C@H](OC(=O)[C@H](Cc1ccc(O)cc1)NC(=O)OC(C)(C)C)C[C@@H]1[C@@]3(C)CC[C@H](O)C(C)(C)[C@@H]3CC[C@]12C,84,63,90,> 100,> 100,29
CC(C)(O)CCC[C@@](C)(O)[C@H]1CC[C@]2(C)[C@@H]1[C@H](O)C[C@@H]1[C@@]3(C)CC[C@H](OC(=O)[C@H](Cc4ccc(O)cc4)NC(=O)OC(C)(C)C)C(C)(C)[C@@H]3CC[C@]12C,33,25,37,34,> 100,19
CC(C)C[C@H](N)C(=O)O[C@H]1CC[C@]2(C)[C@H]3C[C@@H](O)[C@@H]4[C@@H]([C@](C)(O)CCCC(C)(C)O)CC[C@@]4(C)[C@]3(C)CC[C@H]2C1(C)C,16,7.9,8.9,7.6,> 100,4.8
C[C@H](NC(=O)OC(C)(C)C)C(=O)O[C@@H]1C[C@@H]2[C@@]3(C)CC[C@H](O)C(C)(C)[C@@H]3CC[C@@]2(C)[C@]2(C)CC[C@H]([C@](C)(O)CCCC(C)(C)O)[C@@H]12,34,49,40,> 100,> 100,46
CC(C)C[C@H](NC(=O)OC(C)(C)C)C(=O)O[C@@H]1C[C@@H]2[C@@]3(C)CC[C@H](O)C(C)(C)[C@@H]3CC[C@@]2(C)[C@]2(C)CC[C@H]([C@](C)(O)CCCC(C)(C)O)[C@@H]12,86,> 100,> 100,> 100,> 100,> 100
CC(C)(O)CCC[C@@](C)(O)[C@H]1CC[C@]2(C)[C@@H]1[C@H](OC(=O)[C@H](CCC(=O)OCc1ccccc1)NC(=O)OC(C)(C)C)C[C@@H]1[C@@]3(C)CC[C@H](O)C(C)(C)[C@@H]3CC[C@]12C,85,> 100,> 100,> 100,> 100,79
O=c1[nH]cc(F)c(=O)[nH]1 [FLUOROURACIL],33,46,37,38,29,20
CC(C)(O)CCC[C@@](C)(O)[C@H]1CC[C@]2(C)[C@@H]1[C@H](O)C[C@@H]1[C@@]3(C)CC[C@H](OC(=O)[C@H](CO)NC(=O)OC(C)(C)C)C(C)(C)[C@@H]3CC[C@]12C,24,25,21,25,> 100,18
CC[C@H](C)[C@H](N)C(=O)O[C@H]1CC[C@]2(C)[C@H]3C[C@@H](O)[C@@H]4[C@@H]([C@](C)(O)CCCC(C)(C)O)CC[C@@]4(C)[C@]3(C)CC[C@H]2C1(C)C,17,8.4,10,14,> 100,6.4
CC(C)C[C@H](NC(=O)OC(C)(C)C)C(=O)O[C@H]1CC[C@]2(C)[C@H]3C[C@@H](OC(=O)[C@H](CC(C)C)NC(=O)OC(C)(C)C)[C@@H]4[C@@H]([C@](C)(O)CCCC(C)(C)O)CC[C@@]4(C)[C@]3(C)CC[C@H]2C1(C)C,73,> 100,> 100,> 100,> 100,> 100
CC(C)(O)CCC[C@@](C)(O)[C@H]1CC[C@]2(C)[C@@H]1[C@H](OC(=O)[C@H](Cc1cnc[nH]1)NC(=O)OC(C)(C)C)C[C@@H]1[C@@]3(C)CC[C@H](O)C(C)(C)[C@@H]3CC[C@]12C,72,86,38,> 100,> 100,23
CC(C)(O)CCC[C@@](C)(O)[C@H]1CC[C@]2(C)[C@@H]1[C@H](O)C[C@@H]1[C@@]3(C)CC[C@H](O)C(C)(C)[C@@H]3CC[C@]12C,48,57,46,53,> 100,33
CC[C@H](C)[C@H](NC(=O)OC(C)(C)C)C(=O)O[C@H]1CC[C@]2(C)[C@H]3C[C@@H](OC(=O)[C@@H](NC(=O)OC(C)(C)C)[C@@H](C)CC)[C@@H]4[C@@H]([C@](C)(O)CCCC(C)(C)O)CC[C@@]4(C)[C@]3(C)CC[C@H]2C1(C)C,69,> 100,> 100,> 100,> 100,> 100
CC(C)(O)CCC[C@@](C)(O)[C@H]1CC[C@]2(C)[C@@H]1[C@H](O)C[C@@H]1[C@@]3(C)CC[C@H](OC(=O)[C@@H](N)Cc4cnc[nH]4)C(C)(C)[C@@H]3CC[C@]12C,11,10,12,9.6,> 100,5.3
CC(C)C[C@H](NC(=O)OC(C)(C)C)C(=O)O[C@H]1CC[C@]2(C)[C@H]3C[C@@H](O)[C@@H]4[C@@H]([C@](C)(O)CCCC(C)(C)O)CC[C@@]4(C)[C@]3(C)CC[C@H]2C1(C)C,32,41,24,26,> 100,17
C[C@H](N)C(=O)O[C@H]1CC[C@]2(C)[C@H]3C[C@@H](O)[C@@H]4[C@@H]([C@](C)(O)CCCC(C)(C)O)CC[C@@]4(C)[C@]3(C)CC[C@H]2C1(C)C,11,7.6,7.9,8,> 100,4.8
C[C@H](NC(=O)OC(C)(C)C)C(=O)O[C@H]1CC[C@]2(C)[C@H]3C[C@@H](OC(=O)[C@H](C)NC(=O)OC(C)(C)C)[C@@H]4[C@@H]([C@](C)(O)CCCC(C)(C)O)CC[C@@]4(C)[C@]3(C)CC[C@H]2C1(C)C,57,> 100,81,> 100,> 100,80
CC[C@H](C)[C@H](NC(=O)OC(C)(C)C)C(=O)O[C@H]1CC[C@]2(C)[C@H]3C[C@@H](O)[C@@H]4[C@@H]([C@](C)(O)CCCC(C)(C)O)CC[C@@]4(C)[C@]3(C)CC[C@H]2C1(C)C,36,24,22,58,> 100,18
C[C@H](N)C(=O)O[C@@H]1C[C@@H]2[C@@]3(C)CC[C@H](O)C(C)(C)[C@@H]3CC[C@@]2(C)[C@]2(C)CC[C@H]([C@](C)(O)CCCC(C)(C)O)[C@@H]12,9.2,8.8,9,14,> 100,5.7
C[C@@H](O)[C@H](N)C(=O)O[C@H]1CC[C@]2(C)[C@H]3C[C@@H](O)[C@@H]4[C@@H]([C@](C)(O)CCCC(C)(C)O)CC[C@@]4(C)[C@]3(C)CC[C@H]2C1(C)C,12,8.9,11,8.7,> 100,5.4
CC(C)(O)CCC[C@@](C)(O)[C@H]1CC[C@]2(C)[C@@H]1[C@H](O)C[C@@H]1[C@@]3(C)CC[C@H](OC(=O)[C@H](CCCNC(=N)N)NC(=O)OC(C)(C)C)C(C)(C)[C@@H]3CC[C@]12C,13,12,12,11,> 100,8
CC(C)(O)CCC[C@@](C)(O)[C@H]1CC[C@]2(C)[C@@H]1[C@H](O)C[C@@H]1[C@@]3(C)CC[C@H](OC(=O)[C@H](CCC(=O)OCc4ccccc4)NC(=O)OC(C)(C)C)C(C)(C)[C@@H]3CC[C@]12C,28,29,23,54,> 100,19
C[C@H](NC(=O)OC(C)(C)C)C(=O)O[C@H]1CC[C@]2(C)[C@H]3C[C@@H](O)[C@@H]4[C@@H]([C@](C)(O)CCCC(C)(C)O)CC[C@@]4(C)[C@]3(C)CC[C@H]2C1(C)C,24,22,18,23,> 100,17
C[C@@H](O)[C@H](NC(=O)OC(C)(C)C)C(=O)O[C@H]1CC[C@]2(C)[C@H]3C[C@@H](O)[C@@H]4[C@@H]([C@](C)(O)CCCC(C)(C)O)CC[C@@]4(C)[C@]3(C)CC[C@H]2C1(C)C,24,28,22,25,> 100,14
